The assay deals with T1, Human autotaxin enzyme (Homo sapiens, UniProt Q13822).
T1 construct: purchased R&D System
Put plainly: Evaluation of autotaxin inhibitor, Method B (Test Example 2): TG-mTMP fluorescence. The format is biochemical. As to conditions: Assay Method B (Test Example 2), human autotaxin; read-out: Inhibitory Activity (autotaxin enzyme inhibitory activity, IC50 class). The protocol:
(Method B) Evaluation of Autotaxin Inhibitor
Solution A containing 25 mM Tris-HCl buffer (pH7.5), 100 mM NaCl, 5 mM MgCl2 and 0.1% BSA was prepared. Human autotaxin enzyme (purchased from R&D System) was diluted with Solution A, and 5 μL of which was added to a solution of test compound in DMSO. Furthermore, 5 μl of 0.5 μM TG-mTMP in Solution A was added and allowed to react at room temperature for 2 hours. 5 μl of 150 mM EDTA in Solution A was added to quench the reaction, and the fluorescent dye TokyoGreen, which was produced by the reaction, was detected. The fluorescence was detected using ViewLux (PerkinElmer, Inc.) with an excitation wavelength of 480 nm and a fluorescence wavelength of 540 nm.
One may read the IC50 as the concentration at which inhibition is half-maximal. Consider `CCCCCn1c(C)cc(=O)n2cc(-c3ccc(N4CCCC4=O)cc3)nc12` [Compound 148], for which the IC50 was over 1000 nM.
As to `CCCCCn1c(C)cc(=O)n2cc(-c3ccc4c(c3)CCO4)nc12` [Compound 149], the IC50 was in the range of 100 to 1000 nM.
As to `CCCCCn1c(C)cc(=O)n2cc(-c3ccc4c(c3)CCC4)nc12` [Compound 150], the IC50 lay within 100 to 1000 nM.
Turning to `CCCCCn1c(C)cc(=O)n2cc(-c3ccc(C(=O)OCC)cc3)nc12` [Compound 151], the IC50 was over 1000 nM.
For the molecule `CCCCCn1c(C)cc(=O)n2cc(-c3ccc(OC)cc3)nc12` [Compound 152], the IC50 fell in the range of 10 to 100 nM.
In the case of `CCCCCn1c(C)cc(=O)n2cc(-c3ccc4ccccc4c3)nc12` [Compound 153], the IC50 is over 1000 nM.
Consider `CCCCCn1c(C)cc(=O)n2cc(-c3ccc(C)cc3C)nc12` [Compound 154], for which the IC50 is 10 to 100 nM.
Regarding `CCCCCn1c(C)cc(=O)n2cc(-c3ccc(OC(F)F)cc3)nc12` [Compound 155], the IC50 lay in the range of 10 to 100 nM.
As to `CCCCCn1c(C)cc(=O)n2cc(-c3ccc(OC(F)(F)F)cc3)nc12` [Compound 156], the IC50 was under 10 nM.
`CCCCCn1c(C)cc(=O)n2cc(-c3ccc(C#N)cc3)nc12` [Compound 157]: the IC50 was under 10 nM.
On to `CCCCCn1c(C)cc(=O)n2cc(-c3ccc(Cl)cc3Cl)nc12` [Compound 158], for which the IC50 fell in the range of 10 to 100 nM.
Under `CCCCCn1c(C)cc(=O)n2cc(-c3ccc(N(CC)CC)cc3)nc12` [Compound 159] stands over 1000 nM.
Take `CCCCCn1c(C)cc(=O)n2cc(-c3ccc4c(c3)OCCCO4)nc12` [Compound 160]: the IC50 was 100 to 1000 nM.
For the molecule `CCCCCn1c(C)cc(=O)n2cc(-c3ccc(C(F)(F)F)cc3)nc12` [Compound 161], the IC50 is under 10 nM.
Regarding `CCCCCn1c(C)cc(=O)n2cc(-c3ccc(F)cc3F)nc12` [Compound 162], the IC50 is 100 to 1000 nM.
Consider `CCCCCn1c(C)cc(=O)n2cc(-c3ccccc3F)nc12` [Compound 163], for which the half-maximal inhibitory concentration (IC50) lay within 100 to 1000 nM.
Regarding `CCCCCn1c(C)cc(=O)n2c(C=O)c(-c3ccc(Cl)cc3)nc12` [Compound 167, 2-(4-chlorophenyl)-7-methyl-5-oxo-8-pentyl-5,8-dihydroimidazo[1,2-a]pyrimidine-3-carbaldehyde], the IC50 lay in the range of 100 to 1000 nM.
Take `CCCCCn1c(C)cc(=O)n2c(CO)c(-c3ccc(Cl)cc3)nc12` [Compound 168, 2-(4-chlorophenyl)-3-hydroxymethyl-7-methyl-8-pentylimidazo[1,2-a]pyrimidin-5(8H)-one]: the IC50 lay within 100 to 1000 nM.
Under `CCCCCn1c(C)cc(=O)n2c(C)c(-c3ccc(Br)cc3)nc12` [Compound 169] stands 10 to 100 nM; under `CCCCCn1c(C)cc(=O)n2c(C)c(-c3ccc(Cl)cc3)nc12` [Compound 170], 10 to 100 nM.
Turning to `CCCCCn1c(C)cc(=O)n2c(Br)c(-c3ccc(Cl)cc3)nc12` [Compound 171], the IC50 lay in the range of 10 to 100 nM.
Take `CCCCCn1c(C)cc(=O)n2c(CN)c(-c3ccc(Cl)cc3)nc12` [Compound 172]: the IC50 is over 1000 nM.
The result for `CCCCCn1c(C)cc(=O)n2c(CN(C)C)c(-c3ccc(Cl)cc3)nc12` [Compound 173] reads over 1000 nM; that for `CCCCCn1c(Cl)cc(=O)n2cc(-c3ccc(Cl)cc3)nc12` [Compound 176, 7-chloro-2-(4-chlorophenyl)-8-pentylimidazo[1,2-a]pyrimidin-5(8H)-one], 10 to 100 nM.
Take `CCCCCn1c(NCc2ccc(C(=O)OC)cc2)cc(=O)n2cc(-c3ccc(Cl)cc3)nc12` [Compound 177, methyl 4-((2-(4-chlorophenyl)-5-oxo-8-pentyl-5,8-dihydroimidazo[1,2-a]pyrimidin-7-ylamino)methyl)benzoate]: the IC50 was 10 to 100 nM.
As for `CCCCCn1c(NCc2ccc(C(=O)OC)cc2)c(C)c(=O)n2cc(-c3ccc(Cl)cc3)nc12` [Compound 178, methyl 4-((2-(4-chlorophenyl)-6-methyl-5-oxo-8-pentyl-5,8-dihydroimidazo[1,2-a]pyrimidin-7-ylamino)methyl)benzoate], the half-maximal inhibitory concentration (IC50) was under 10 nM.
Turning to `CCCCCn1c(C)c(CC(=O)O)c(=O)n2cc(-c3ccc(Cl)cc3)nc12` [Compound 179], the IC50 was in the range of 10 to 100 nM.
The result for `CCCCCn1c(C)c(CCC(=O)O)c(=O)n2cc(-c3ccc(Cl)cc3)nc12` [Compound 180] reads under 10 nM; that for `CCCCCn1c(C)c(CC(=O)NCC)c(=O)n2cc(-c3ccc(Cl)cc3)nc12` [Compound 181], under 10 nM.
With `CCCCCn1c(C)c(-c2ccccc2)c(=O)n2cc(-c3ccc(Cl)cc3)nc12` [Compound 182], the IC50 was over 1000 nM.
Regarding `CCCCCn1c(C)c(C#CCO)c(=O)n2cc(-c3ccc(Cl)cc3)nc12` [Compound 183], the IC50 lay in the range of 10 to 100 nM.
In the case of `CCCCCn1c(C)c(C#N)c(=O)n2cc(-c3ccc(Cl)cc3)nc12` [Compound 184], the IC50 is over 1000 nM.
Regarding `CCCCCn1c(C)c(C(=O)O)c(=O)n2cc(-c3ccc(Cl)cc3)nc12` [Compound 185], the IC50 fell in the range of 100 to 1000 nM.
Take `CCCCCn1ccc(=O)n2cc(-c3ccc(Cl)cc3)nc12` [Compound 186]: the IC50 was 10 to 100 nM.
Take `CCCCCn1c(N2CCCC2)cc(=O)n2cc(-c3ccc(Cl)cc3)nc12` [Compound 187]: the IC50 is 10 to 100 nM.
As to `CCCCCn1c(NCCC)cc(=O)n2cc(-c3ccc(Cl)cc3)nc12` [Compound 188], the IC50 lay within 10 to 100 nM.
Take `CCCCCn1c(OCCC)cc(=O)n2cc(-c3ccc(Cl)cc3)nc12` [Compound 189]: the IC50 is 10 to 100 nM.
For the molecule `CCCCCn1c(N2CCN(CCN3CCOCC3)CC2)cc(=O)n2cc(-c3ccc(Cl)cc3)nc12` [Compound 191], the IC50 is under 10 nM.
With `CCCCCn1c(OC2CCN(C)CC2)cc(=O)n2cc(-c3ccc(Cl)cc3)nc12` [Compound 193], the IC50 is under 10 nM.
For the molecule `CCCCCn1c(N(C)Cc2ccc(C(=O)OC)cc2)cc(=O)n2cc(-c3ccc(Cl)cc3)nc12` [Compound 195], the IC50 was under 10 nM.
With `CCCCCn1c(N2CCC2)cc(=O)n2cc(-c3ccc(Cl)cc3)nc12` [Compound 196], the IC50 is under 10 nM.
As to `CCCCCn1c(C)c(NC(C)=O)c(=O)n2cc(-c3ccc(Cl)cc3)nc12` [Compound 199], the IC50 lay in the range of 10 to 100 nM.
As to `CCCCCn1c(C)c(CCC(=O)OCC)c(=O)n2cc(-c3ccc(Cl)cc3)nc12` [Compound 200], the IC50 was under 10 nM.
With `CCCCCOC(=O)CCc1c(C)n(CCCCC)c2nc(-c3ccc(Cl)cc3)cn2c1=O` [Compound 201], the IC50 was under 10 nM.
On to `CCCCCn1c(C)c(Cc2ccccc2)c(=O)n2cc(-c3ccc(Cl)cc3)nc12` [Compound 203], for which the 50% inhibitory concentration (IC50) was in the range of 10 to 100 nM.
Regarding `CCCCCn1c(C)c(CCCC)c(=O)n2cc(-c3ccc(Cl)cc3)nc12` [Compound 204], the IC50 fell in the range of 100 to 1000 nM.
For the molecule `CCCCCn1c(C)c(CC)c(=O)n2cc(-c3ccc(Cl)cc3)nc12` [Compound 205], the IC50 lay within 10 to 100 nM.
In the case of `CCCCCn1c(C)c(F)c(=O)n2cc(-c3ccc(Cl)cc3)nc12` [Compound 206], the 50% inhibitory concentration (IC50) lay in the range of 10 to 100 nM.
For `CCCCCn1c(C)c(C)c(=O)n2cc(-c3ccc(Cl)cc3)nc12` [Compound 208], the IC50 fell in the range of 10 to 100 nM.
`CCCCCn1c(C)c(NC(C)=O)c(=O)n2cc(-c3cccc(Cl)c3)nc12` [Compound 209]: the IC50 lay in the range of 100 to 1000 nM.
As for `CCCCCn1c(C)c(CCC(=O)OCC)c(=O)n2cc(-c3cccc(Cl)c3)nc12` [Compound 210], the IC50 fell in the range of 100 to 1000 nM.
Consider `CCCCCn1c(C)c(Cc2ccccc2)c(=O)n2cc(-c3cccc(Cl)c3)nc12` [Compound 211], for which the IC50 was over 1000 nM.
`CCCCCn1c(C)c(F)c(=O)n2cc(-c3cccc(Cl)c3)nc12` [Compound 212]: the IC50 is over 1000 nM.
With `CCCCCn1c(C)c(CCO)c(=O)n2cc(-c3cccc(Cl)c3)nc12` [Compound 213], the IC50 lay within 100 to 1000 nM.
For `CCCCCn1c(C)c(CCOCC)c(=O)n2cc(-c3ccc(Cl)cc3)nc12` [Compound 214], the IC50 is under 10 nM.
Turning to `CCCCCOC(=O)Cc1c(C)n(CCCCC)c2nc(-c3ccc(Cl)cc3)cn2c1=O` [Compound 215], the half-maximal inhibitory concentration (IC50) was under 10 nM.
For the molecule `CCCCCn1c(C)c(CCOCC)c(=O)n2cc(-c3ccc(Cl)cc3)nc12` [Compound 216], the IC50 was over 1000 nM.
The result for `CCCCCOC(=O)CCc1c(C)n(CCCCC)c2nc(-c3ccc(Cl)cc3)cn2c1=O` [Compound 217] reads 100 to 1000 nM; that for `CCCCCn1c(NCC(=O)O)cc(=O)n2cc(-c3ccc(Cl)cc3)nc12` [Compound 218], 10 to 100 nM.
Take `CCCCCn1c(NCCO)cc(=O)n2cc(-c3ccc(Cl)cc3)nc12` [Compound 222]: the IC50 was in the range of 10 to 100 nM.
Regarding `CCCCCn1c(N2CCN(CCc3ccccc3)CC2)cc(=O)n2cc(-c3ccc(Cl)cc3)nc12` [Compound 223], the IC50 was in the range of 10 to 100 nM.
The result for `CCCCCn1c(NC2CCCC2)cc(=O)n2cc(-c3ccc(Cl)cc3)nc12` [Compound 224] reads 10 to 100 nM; that for `CCCCCn1c(N2CCC(C(=O)O)CC2)cc(=O)n2cc(-c3ccc(Cl)cc3)nc12` [Compound 225], under 10 nM; that for `CCCCCn1c(NCc2ccc(OC)cc2)cc(=O)n2cc(-c3ccc(Cl)cc3)nc12` [Compound 226], 10 to 100 nM.
With `CCCCCn1c(NCCN2CCN(C)CC2)cc(=O)n2cc(-c3ccc(Cl)cc3)nc12` [Compound 227], the IC50 is under 10 nM.
In the case of `CCCCCn1c(NCc2cccn2C)cc(=O)n2cc(-c3ccc(Cl)cc3)nc12` [Compound 228], the IC50 was in the range of 10 to 100 nM.
For the molecule `CCCCCn1c(NCc2ccccn2)cc(=O)n2cc(-c3ccc(Cl)cc3)nc12` [Compound 229], the concentration for half-maximal inhibition (IC50) was 10 to 100 nM.
For `CCCCCn1c(N(C)CCC)cc(=O)n2cc(-c3ccc(Cl)cc3)nc12` [Compound 230], the IC50 was under 10 nM.

These data come from patent US20160002247A1, “8-SUBSTITUTED IMIDAZOPYRIMIDINONE DERIVATIVE HAVING AUTOTAXIN INHIBITORY ACTIVITY” (THE UNIVERSITY OF TOKYO, priority 2013, published 2016).
